Consider one compound from patent publication US11925617B2 (priority 2005, dated 2024).

Test [1] concerns HL60 bcl-2 cells. The test is classed as cell-based.
Test [2] concerns HL60 bcl-2 cells. Briefly: cells. The test is classed as cell-based.
Another test relates to bcl-2 protein. The test is classed as cell-based.
The test system of test [3] is HL60 neo cells. In words: cells. The test is classed as cell-based. The following applies: Homo sapiens, HL-60, 240 h, read-out: inhibition of cell growth.
A further test concerns SCC VII cells. The test is classed as cell-based, murine.
Test [4] relates to HL60 neo cells. The test is classed as cell-based.
Another test concerns HT29 cells. The test is classed as cell-based, Human.

Each structure is given as a SMILES string.

The inhibition is the percentage by which the read-out fell short of the control. Turning to `O=C(CBr)N1CC([N+](=O)[O-])([N+](=O)[O-])C1` [ABDNAZ], in the test on HL60 bcl-2 cells [1], the apoptosis was determined as 78% and the “apoptotic cell death, peak” value is approximately 40%. The “sensitivity of HL60 bcl-2 cells compared with neo cells” value with HL60 bcl-2 cells [2] is on record as “as sensitive as neo cells”. Further, the inhibition at 5 µM with HL60 bcl-2 cells [2] (Homo sapiens, HL-60, 240 h, read-out: inhibition of cell growth) was more than 95%. The bcl-2 protein expression entry in the test on bcl-2 protein was “inhibited bcl-2 protein expression in both neo and bcl-2 cells in a dose-dependent manner”. For the same compound, in the test on HL60 neo cells [3], the inhibition at 5 µM was more than 95%. In the test with SCC VII cells, the “intracellular ROS generation, combined treatment of ABDNAZ and radiation” value was “synergistically induced intracellular ROS generation”; the “levels of ROS compared with HT29 cells” value is given as “significantly higher than that induced in HT29 cells”; the “production of ROS” value was “dose, time and cell line dependent”; the “time of peak ROS production” value came out at 2 h. In the test with HL60 neo cells [4], the apoptosis was 95% and the “apoptotic cell death, peak” value was approximately 40%. In the test with HT29 cells, the “intracellular ROS generation, combined treatment of ABDNAZ and radiation” value is “synergistically induced intracellular ROS generation”; the “production of ROS” value is “dose, time and cell line dependent”; the “time of peak ROS production” value was 24 h.
